From patent US9643930B2, “Substituted indazole derivatives as in vitro MAO-B inhibitors” (“NTZ LAB” LTD., priority 2013, dated 2017)

Biological target: T1, rat MAO-B (Rattus norvegicus, UniProt P19643)
T1 construct: from tissue; host or cells: rat liver mitochondria (male Sprague-Dawley rats)
T1 sequence (P19643 1-520): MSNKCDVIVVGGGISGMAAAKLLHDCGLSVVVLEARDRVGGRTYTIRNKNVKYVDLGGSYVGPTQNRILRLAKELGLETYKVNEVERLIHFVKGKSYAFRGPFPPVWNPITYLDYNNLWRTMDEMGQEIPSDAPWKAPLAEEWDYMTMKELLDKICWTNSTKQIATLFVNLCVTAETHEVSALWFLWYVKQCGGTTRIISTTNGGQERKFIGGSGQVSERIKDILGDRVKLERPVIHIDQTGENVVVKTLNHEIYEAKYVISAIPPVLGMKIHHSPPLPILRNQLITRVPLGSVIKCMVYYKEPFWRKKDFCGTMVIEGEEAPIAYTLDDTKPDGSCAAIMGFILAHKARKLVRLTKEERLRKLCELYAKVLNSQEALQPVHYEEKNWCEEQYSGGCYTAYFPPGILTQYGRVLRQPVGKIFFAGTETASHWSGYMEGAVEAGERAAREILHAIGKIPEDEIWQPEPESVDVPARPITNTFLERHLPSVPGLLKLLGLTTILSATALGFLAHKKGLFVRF
Test: Rat MAO-B assay (Amplex Red fluorescence, rat liver mitochondria pre-treated with clorgyline 30 nM)
Format: biochemical
Settings: not given

Structure (SMILES)	IC50
Clc1cc(/N=C/c2ccc3[nH]ncc3c2)cnc1Cl [Example 25, (E)-N-((1H-indazol-5-yl)methylene)-5,6-dichloropyridin-3-amine]	1.48 ± 0.07 nM
Fc1ccc(/N=C/c2ccc3[nH]ncc3c2)cc1Cl [Example 24, (E)-N-((1H-indazol-5-yl)methylene)-3-chloro-4-fluoroaniline]	6.08 ± 0.52 nM
Fc1cc(/N=C/c2ccc3[nH]ncc3c2)ccc1Cl [Example 23, (E)-N-((1H-indazol-5-yl)methylene)-4-chloro-3-fluoroaniline]	25.2 ± 0.11 nM

Same assay, conditions: rat liver mitochondria pre-treated with clorgyline 30 nM; read-out: rat MAO-B (rat liver mitochondria) IC50

Structure (SMILES)	IC50
O=C(Nc1ccc(F)c(F)c1)c1ccc2[nH]ncc2c1 [Example 11, N-(3,4-difluorophenyl)-1H-indazole-5-carboxamide]	8.89 ± 0.05 nM
Cn1ncc2cc(C(=O)Nc3ccc(F)c(Cl)c3)ccc21 [Example 17, N-(3-chloro-4-fluorophenyl)-1-methyl-1H-indazole-5-carboxamide]	1.36 ± 0.13 nM

Biological target: T2, human MAO-B (Homo sapiens, UniProt P27338)
T2 sequence (P27338 1-520): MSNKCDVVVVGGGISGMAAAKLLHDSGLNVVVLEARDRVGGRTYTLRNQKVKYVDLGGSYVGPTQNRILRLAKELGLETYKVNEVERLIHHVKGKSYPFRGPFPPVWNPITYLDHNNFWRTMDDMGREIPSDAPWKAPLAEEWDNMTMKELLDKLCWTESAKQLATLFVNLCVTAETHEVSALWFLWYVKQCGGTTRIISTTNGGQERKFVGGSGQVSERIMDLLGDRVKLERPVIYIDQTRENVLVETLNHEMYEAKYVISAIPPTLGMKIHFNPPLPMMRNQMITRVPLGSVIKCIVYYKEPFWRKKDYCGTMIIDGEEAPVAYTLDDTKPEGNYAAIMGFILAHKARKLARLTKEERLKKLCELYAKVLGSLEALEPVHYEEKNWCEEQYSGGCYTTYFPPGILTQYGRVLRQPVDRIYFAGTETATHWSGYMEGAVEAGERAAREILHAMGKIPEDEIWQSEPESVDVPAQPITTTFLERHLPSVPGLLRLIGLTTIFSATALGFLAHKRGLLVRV
Test: Human MAO-B assay (recombinant enzyme, Amplex Red fluorescence)
Format: biochemical
Set-up: purchased Sigma-Aldrich M7441; host or cells: baculovirus-infected insect cells (microsomal product)
Settings: p-tyramine 150 μM

Structure (SMILES)	IC50
Clc1cc(/N=C/c2ccc3[nH]ncc3c2)cnc1Cl [Example 25, (E)-N-((1H-indazol-5-yl)methylene)-5,6-dichloropyridin-3-amine]	0.474 ± 0.02 nM
O=C(Nc1ccc(F)c(F)c1)c1ccc2[nH]ncc2c1 [Example 11, N-(3,4-difluorophenyl)-1H-indazole-5-carboxamide]	1.59 ± 0.16 nM
Fc1ccc(/N=C/c2ccc3[nH]ncc3c2)cc1Cl [Example 24, (E)-N-((1H-indazol-5-yl)methylene)-3-chloro-4-fluoroaniline]	2.1 ± 0.3 nM
Fc1cc(/N=C/c2ccc3[nH]ncc3c2)ccc1Cl [Example 23, (E)-N-((1H-indazol-5-yl)methylene)-4-chloro-3-fluoroaniline]	1.91 ± 0.27 nM

Biological target: T3, rat MAO-A (Rattus norvegicus, UniProt P21396)
T3 construct: from tissue; host or cells: rat liver mitochondria (male Sprague-Dawley rats)
T3 sequence (P21396 1-526): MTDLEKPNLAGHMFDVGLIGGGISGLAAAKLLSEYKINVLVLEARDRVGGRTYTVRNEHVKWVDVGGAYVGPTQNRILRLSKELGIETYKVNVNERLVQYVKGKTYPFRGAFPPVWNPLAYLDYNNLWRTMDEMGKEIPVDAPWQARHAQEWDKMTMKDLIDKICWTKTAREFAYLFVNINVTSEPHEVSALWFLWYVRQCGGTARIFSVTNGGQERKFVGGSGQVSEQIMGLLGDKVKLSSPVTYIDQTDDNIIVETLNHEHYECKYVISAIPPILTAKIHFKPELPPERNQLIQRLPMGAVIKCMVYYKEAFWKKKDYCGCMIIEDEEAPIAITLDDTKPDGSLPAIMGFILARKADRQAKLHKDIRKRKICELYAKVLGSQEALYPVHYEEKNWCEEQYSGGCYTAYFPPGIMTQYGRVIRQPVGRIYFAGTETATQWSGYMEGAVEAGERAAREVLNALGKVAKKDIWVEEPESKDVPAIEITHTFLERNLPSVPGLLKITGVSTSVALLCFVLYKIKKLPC
Test: Rat MAO-A assay (Amplex Red fluorescence, rat liver mitochondria pre-treated with deprenyl)
Format: biochemical
Settings: not given

Structure (SMILES)	IC50
Clc1cc(/N=C/c2ccc3[nH]ncc3c2)cnc1Cl [Example 25, (E)-N-((1H-indazol-5-yl)methylene)-5,6-dichloropyridin-3-amine]	> 10000 nM
Fc1ccc(/N=C/c2ccc3[nH]ncc3c2)cc1Cl [Example 24, (E)-N-((1H-indazol-5-yl)methylene)-3-chloro-4-fluoroaniline]	> 10000 nM
Fc1cc(/N=C/c2ccc3[nH]ncc3c2)ccc1Cl [Example 23, (E)-N-((1H-indazol-5-yl)methylene)-4-chloro-3-fluoroaniline]	> 10000 nM

Same assay, conditions: rat liver mitochondria, substrate p-tyramine; read-out: rat MAO-A (rat liver mitochondria) IC50

Structure (SMILES)	IC50
O=C(Nc1ccc(F)c(F)c1)c1ccc2[nH]ncc2c1 [Example 11, N-(3,4-difluorophenyl)-1H-indazole-5-carboxamide]	> 10000 nM

Same assay, conditions: read-out: rat MAO-A (rat liver mitochondria) % inhibition at 10 μM

Structure (SMILES)	inhibition at 10 µM
Cn1ncc2cc(C(=O)Nc3ccc(F)c(Cl)c3)ccc21 [Example 17, N-(3-chloro-4-fluorophenyl)-1-methyl-1H-indazole-5-carboxamide]	29%

Same assay, conditions: read-out: rat MAO-A (rat liver mitochondria) % inhibition at 10 μM; at 10 μM, rat liver mitochondria

Structure (SMILES)	inhibition at 10 µM
Clc1cc(/N=C/c2ccc3[nH]ncc3c2)cnc1Cl [Example 25, (E)-N-((1H-indazol-5-yl)methylene)-5,6-dichloropyridin-3-amine]	45%
O=C(Nc1ccc(F)c(F)c1)c1ccc2[nH]ncc2c1 [Example 11, N-(3,4-difluorophenyl)-1H-indazole-5-carboxamide]	13%
Fc1ccc(/N=C/c2ccc3[nH]ncc3c2)cc1Cl [Example 24, (E)-N-((1H-indazol-5-yl)methylene)-3-chloro-4-fluoroaniline]	35%
Fc1cc(/N=C/c2ccc3[nH]ncc3c2)ccc1Cl [Example 23, (E)-N-((1H-indazol-5-yl)methylene)-4-chloro-3-fluoroaniline]	27%

Biological target: T4, human MAO-A (Homo sapiens, UniProt P21397)
T4 sequence (P21397 1-527): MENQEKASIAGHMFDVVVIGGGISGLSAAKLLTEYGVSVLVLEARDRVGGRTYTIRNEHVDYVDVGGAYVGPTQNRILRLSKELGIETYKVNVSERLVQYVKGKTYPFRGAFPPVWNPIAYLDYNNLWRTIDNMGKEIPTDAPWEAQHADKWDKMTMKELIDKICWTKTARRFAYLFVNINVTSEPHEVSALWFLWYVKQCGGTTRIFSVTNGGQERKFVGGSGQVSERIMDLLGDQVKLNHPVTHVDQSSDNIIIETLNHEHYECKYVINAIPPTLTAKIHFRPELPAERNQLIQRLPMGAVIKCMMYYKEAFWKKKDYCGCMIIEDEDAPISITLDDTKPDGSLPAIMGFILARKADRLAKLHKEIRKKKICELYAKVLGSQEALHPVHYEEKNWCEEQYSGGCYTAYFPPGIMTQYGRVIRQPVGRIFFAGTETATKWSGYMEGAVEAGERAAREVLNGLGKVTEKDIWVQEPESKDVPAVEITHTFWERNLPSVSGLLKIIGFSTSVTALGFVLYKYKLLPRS
Test: Human MAO-A assay (recombinant enzyme, Amplex Red fluorescence)
Settings: not given

Structure (SMILES)	IC50
Clc1cc(/N=C/c2ccc3[nH]ncc3c2)cnc1Cl [Example 25, (E)-N-((1H-indazol-5-yl)methylene)-5,6-dichloropyridin-3-amine]	< 10000 nM
O=C(Nc1ccc(F)c(F)c1)c1ccc2[nH]ncc2c1 [Example 11, N-(3,4-difluorophenyl)-1H-indazole-5-carboxamide]	> 10000 nM
Fc1ccc(/N=C/c2ccc3[nH]ncc3c2)cc1Cl [Example 24, (E)-N-((1H-indazol-5-yl)methylene)-3-chloro-4-fluoroaniline]	< 10000 nM
Fc1cc(/N=C/c2ccc3[nH]ncc3c2)ccc1Cl [Example 23, (E)-N-((1H-indazol-5-yl)methylene)-4-chloro-3-fluoroaniline]	> 10000 nM

Same assay, conditions: read-out: human MAO-A % inhibition at 10 μM

Structure (SMILES)	inhibition at 10 µM
Clc1cc(/N=C/c2ccc3[nH]ncc3c2)cnc1Cl [Example 25, (E)-N-((1H-indazol-5-yl)methylene)-5,6-dichloropyridin-3-amine]	67%
O=C(Nc1ccc(F)c(F)c1)c1ccc2[nH]ncc2c1 [Example 11, N-(3,4-difluorophenyl)-1H-indazole-5-carboxamide]	36%
Fc1ccc(/N=C/c2ccc3[nH]ncc3c2)cc1Cl [Example 24, (E)-N-((1H-indazol-5-yl)methylene)-3-chloro-4-fluoroaniline]	54%
Fc1cc(/N=C/c2ccc3[nH]ncc3c2)ccc1Cl [Example 23, (E)-N-((1H-indazol-5-yl)methylene)-4-chloro-3-fluoroaniline]	44%
